Laboratory results taken from patent publication US9650616B2, “Methods for increasing grain yield” (University of Florida Research Foundation, Inc., priority 2014, dated 2017).
Numbering of substitutions follows the chain as printed. Where two headings read alike, the source gives them in different places.

Experiments:
[1] = target: T1, maize endosperm AGPase, large subunit variant RG (Q96R, D161G; numbering of SEQ ID NO: 20) (Zea mays, UniProt P55241+Q84PF5, D161G/Q96R); experiment: Apparent kinetic constants with 3-PGA, 37° C., RG; assay type: biochemical; conditions: read-out: ATP Km
T1 sequence (P55241 46-516 D161G/Q96R): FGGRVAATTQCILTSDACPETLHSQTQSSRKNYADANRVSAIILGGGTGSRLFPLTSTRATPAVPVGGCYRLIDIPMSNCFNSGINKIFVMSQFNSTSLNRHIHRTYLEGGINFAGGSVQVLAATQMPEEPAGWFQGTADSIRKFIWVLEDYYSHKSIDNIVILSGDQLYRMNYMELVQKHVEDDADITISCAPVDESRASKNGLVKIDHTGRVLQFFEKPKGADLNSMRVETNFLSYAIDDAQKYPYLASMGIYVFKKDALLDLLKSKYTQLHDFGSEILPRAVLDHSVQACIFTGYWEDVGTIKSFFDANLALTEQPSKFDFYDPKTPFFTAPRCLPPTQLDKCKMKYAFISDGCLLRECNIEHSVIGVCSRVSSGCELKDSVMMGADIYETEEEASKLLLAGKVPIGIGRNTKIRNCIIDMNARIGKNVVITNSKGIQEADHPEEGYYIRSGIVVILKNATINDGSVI
T1 sequence (Q84PF5 1-474): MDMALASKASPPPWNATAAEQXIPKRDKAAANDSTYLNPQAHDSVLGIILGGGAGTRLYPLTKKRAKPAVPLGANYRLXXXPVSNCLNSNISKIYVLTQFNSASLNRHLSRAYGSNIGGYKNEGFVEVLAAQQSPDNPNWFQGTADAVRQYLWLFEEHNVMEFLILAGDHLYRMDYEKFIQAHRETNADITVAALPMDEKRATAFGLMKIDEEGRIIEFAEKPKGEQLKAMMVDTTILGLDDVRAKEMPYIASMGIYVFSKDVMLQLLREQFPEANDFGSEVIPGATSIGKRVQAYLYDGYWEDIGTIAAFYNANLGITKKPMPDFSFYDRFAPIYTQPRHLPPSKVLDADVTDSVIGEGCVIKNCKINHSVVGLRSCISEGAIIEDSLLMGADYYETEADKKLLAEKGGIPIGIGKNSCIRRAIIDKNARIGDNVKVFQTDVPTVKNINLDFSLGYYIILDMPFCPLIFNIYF
Excerpt: The small and large subunit plasmids of maize endosperm AGPase (pMONcBt2 and pMONcSh2, respectively) (Giroux et al., 1996) were expressed in E. coli AC70R1-504 cells (Iglesias et al., 1993) as previously described (Boehlein et al., 2008).
An endpoint assay was used to determine the rate of the AGPase reaction by coupling the formation of PPi to a decrease in NADH concentration (Boehlein et al., 2008). […] The Michaelis constants (Km) were obtained by varying one substrate in the presence of saturating concentrations of the second substrate. The activation constants were obtained by varying the activator at fixed levels of both substrates. All reactions were performed at 37° C. and mixes were prewarmed before starting the reaction with enzyme. […] The absorbance at 340 nm was monitored after 30 min and the amount of PPi produced was determined from a standard curve using PPi in complete reaction mixtures lacking AGPase. Blank samples contained complete reaction mixtures without enzyme and the change in absorbance between the blank and the reaction was used to calculate the amount of PPi produced. […]
The apparent Michaelis constant and maximum velocity of each reaction was calculated from a V vs. S plots using nonlinear regression analysis and the following equation, v=VmaxS/(Km+S), where v is the measured velocity, Vmax is the maximum velocity, S is the substrate concentration. […]

[2] = target: T2, maize endosperm AGPase, large subunit variant GGR (Q96G, D161G, A443R; numbering of SEQ ID NO: 20) (Zea mays, UniProt P55241+Q84PF5, A443R/D161G/Q96G); experiment: Pi inhibition in the presence of 3-PGA, GGR; assay type: biochemical; conditions: read-out: Km (ATP), presence of 3-PGA, ATP varied, Pi inhibition, L-MT
T2 sequence (P55241 46-516 A443R/D161G/Q96G): T1 sequence (P55241 46-516 D161G/Q96R) with R51G, A398R
T2 sequence (Q84PF5 1-474): T1 sequence (Q84PF5 1-474)
Excerpt: Inhibition by Pi was then followed in the presence of the activator 3-PGA.

[3] = tested on: maize endosperm AGPase, wild type; conditions: cited from earlier work
[4] = tested on: maize endosperm AGPase, evolutionary mutant SH2-E (SH2E); conditions: absence of 3-PGA, ATP varied, Pi inhibition, NC, read-out: Km (ATP); cited from earlier work

Nc1ncnc2c1ncn2[C@@H]1O[C@H](COP(=O)(O)OP(=O)(O)OP(=O)(O)O)[C@@H](O)[C@H]1O [ATP]
Km [1]: 63 µM | Km [2]: 110 µM | Km ([3]; Maize wt, absence of 3-PGA, ATP varied, Pi inhibition, P-MT, read-out: Km (ATP)): 20400 µM | Km ([3]; wt maize AGPase, absence of activator, Pi inhibition assay, read-out: Km for both substrates): > 20000 µM | Km [4]: 970 µM
